Assay results from patent US10201536B2, “Methods and pharmaceutical compositions for the treatment of bacterial infections in patients suffering from cirrhosis” (INSERM (INSTITUT NATIONAL DE LA SANTE ET DE LA RECHERCHE …, priority 2015, dated 2019).

Tests used:
Gp91phox mRNA = Gp91phox mRNA quantification in neutrophils from cirrhotic patients; assay type: cell-based, human; conditions: patient neutrophils, 2.5 μg/ml, 30 min
Procedure: (§1) FIG. 3. The TLR7/8 agonist CL097 stimulated Gp91phox RNA production and synthesis in neutrophils from patients with advanced alcohol cirrhosis. Neutrophils from cirrhotic patients were treated in the absence (buffer) or presence of CL097 (2.5 μg/ml) for 30 min at 37° C. and the amount of Gp91phox mRNA was quantified and expressed as percentage of control (Buffer) (Panel A, n=6, *: P<0.05). The expression of Gp91phox was determined by western-blot assays and expressed as percentage±SEM of that of neutrophils of healthy donors (Panel B, n=4, *: P<0.05).
(§2) To determine whether this treatment improves NADPH oxidase activity, superoxyde production (02-°) was measured by the specific cytochrome C reduction assay, after cell stimulation with the bacterial peptide fMLP. […] Promisingly, these CL097 original properties were also observed in a model of ROS production in whole blood from patients (FIG. 5B).

[1] = system: whole blood from cirrhotic patients; experiment: ROS production, luminol chemiluminescence, whole blood from cirrhotic patients; assay type: cell-based, human
Procedure: (§3) FIG. 5. The TLR7/8 agonist CL097 restored the production of reactive oxygen species by purified neutrophils and in whole blood from patients. ROS production was measured by the highly sensitive luminol-enhanced chemiluminescence assay with purified neutrophils (0.5×10^6 cells/450μl Hanks Balanced salt solution, Panel A) and with whole blood (20 μl in 450 μl PBS containing 0.120 mM calcium, Panel B) from patients with advanced alcohol cirrhosis. Cells were treated for 15 min with the TLR7/8 agonist […], then with 1 μM fMLP (Panel A). Results represent the peak of chemiluminescence response expressed in cpm (mean±SEM of 8 experiments).
(§4) FIG. 6. […] Whole blood (20 μl) from healthy donors (Panel A) and cirrhotic patients (Panel B) were treated in 450 μL PBS containing 0.120 mM calcium), in the absence (control) and presence of R848 or CL097 (0.25-5 μg/ml) for 15 min. Cells were then stimulated with 1 μM fMLP. Results represent the peak of chemiluminescence response induced by fMLP and are expressed in cpm (mean±SEM of 4-6, *: P<0.05).
as §2

E coli [2] = experiment: Bactericidal activity of neutrophils from healthy volunteers against E coli; assay type: cell-based, human
Procedure: (§5) FIG. 7. Impaired bactericidal activity of neutrophils from cirrhotic patients and beneficial effects of the TLR7/8 agonist CL097. (A) Neutrophils from healthy volunteers (Control) and cirrhotic patients were incubated with E coli for 5 min, then treated or not (Buffer) with fMLP (1 μM) for 25 min. (B, C): Neutrophils incubated with bacteria were treated without (PBS) and with CL097 (1 μg/ml) for 2 min before stimulation with fMLP for 23 min. Cells were lysed and the number of bacterial colony was determined and expressed as percentage of that of control resting cells (A, n=6), or % of that of resting cells (PBS) in both cell populations (B, C, n=6); *P<0.05 (Data published in Boussif A et al, J Hepatol. 2016 64:1041-8. doi: 10.1016/j.jhep.2015.12.005. Epub 2015 Dec. 21).
(§6) Thus, TLR7/8 activation may provide beneficial effects on neutrophil host-defense activities in patients with cirrhosis.

[3] = system: neutrophils from patients with advanced alcoholic cirrhosis; experiment: Superoxide production, cytochrome C reduction assay, patient neutrophils; assay type: cell-based, human; conditions: 2.5 μg/ml 15 min, then 1 μM fMLP
Procedure: (§7) FIG. 4. The TLR7/8 agonist CL097 restored the production of superoxide in neutrophils from patients with advanced alcohol cirrhosis. Neutrophils from healthy donors and patients with advanced alcoholic cirrhosis were treated for 15 min with the TLR7/8 agonist (2.5 μg/ml), then with PBS or 1 μM fMLP. Results represent the mean of superoxide production±SEM expressed in nmole/10^6 cells (n=8, *: P <0.05).
as §2

Gp91phox [4] = experiment: Gp91phox expression by western-blot in neutrophils from cirrhotic patients; assay type: cell-based, human; conditions: patient neutrophils, 2.5 μg/ml, 30 min
Procedure: as §1, §2

[5] = system: neutrophils from healthy donors; experiment: Superoxide production, cytochrome C reduction assay, healthy neutrophils; assay type: cell-based, human; conditions: 2.5 μg/ml 15 min, then 1 μM fMLP
Procedure: as §7, §2

E coli [6] = experiment: Bactericidal activity of neutrophils from cirrhotic patients against E coli; assay type: cell-based, human
Procedure: as §5, §6

[7] = system: purified neutrophils from patients with advanced alcohol cirrhosis; experiment: ROS production, luminol-enhanced chemiluminescence, purified patient neutrophils; assay type: cell-based, human
Procedure: as §3, §2

[8] = system: whole blood from healthy donors; experiment: ROS production, luminol chemiluminescence, whole blood from healthy donors; assay type: cell-based, human; conditions: 0.25-5 μg/ml 15 min, then 1 μM fMLP
Procedure: as §4, §2

cirrhotic BDL rats = experiment: In vivo treatment of cirrhotic bile duct ligated (BDL) rats, ROS production in whole blood; set-up: species or system Wistar female rats; conditions: 2.2 mg/kg at day 21, parenteral administration, fMLP 1 μM ex vivo
Procedure: FIG. 11. In vivo treatment of cirrhotic rats by R848 reverses the deficient ROS production in whole blood. The common bile duct with Wistar female rats was ligated (BDL) under general anesthesia (10 mg Avertin, IP) close to the liver hilum immediately below the bifurcation as described previously (Mohammadi et al, Liver Int. 2009, 29(5):692-700). All surgical procedures were performed under sterile conditions. Blood was collected in Eppendorf tubes (approximately 0.5 ml in 10 mM EDTA) with a 1 inch hypodermic needle inserted into the vessel in the mid ventral surface of the tail. White blood cells were counted using a MS9-5V Analyser Counter (Melet Schloesing Laboratories). At day 21, the cirrhotic BDL rats were treated with R848 (2.2 mg/kg) as reported (McCluskie M J et al, Antiviral Res. 69:77-85, 2006). Control rats were not treated. The production of reactive oxygen species were measured in whole blood at the indicated day. Briefly, ROS production was continueously recorded in a thermostated bioluminometer (Berthold LB940) using 3 blood volumes (0.9, 1.8 and 3.75 μl) incubated at 37° C. in 0.5 ml Hanks balanced salt solution (HBSS) containing 10 μM luminol. Cells were treated with cytochalasin b (0.25 μg/ml) for 5-10 min then stimulated with the bacterial-derived peptide fMet-Leu-he (fMLP, 1 μM). ROS production represents the peak of chemiluminescence response in whole blood. […]

Gp91phox [9] = experiment: gp91phox degradation in healthy PMN treated with purified elastase, western-blot; assay type: cell-based, human; conditions: 1 H at 37° C., 0.1 and 0.5 unit
Procedure: (§8) FIG. 8. Elastase induces the degradation of gp91phox and p22phox in healthy PMN. (A and B) Western-blot analysis and densitometric quantification of gp91phox and p22phox in healthy PMN treated in the absence or presence of elastase at 0.1 and 0.5 units for 1 hour. (C and D) Western-blot analysis densitometric quantification of gp91phox and […] in healthy PMN treated in the absence or presence of the elastase inhibitor (NEI) at 100 μM for 15 min before stimulation with fMLP (1 μM) for 45 min. (E) Western-blot analysis densitometric quantification of gp91phox in healthy PMN pretreated in the absence or presence of the elastase inhibitor (NEI) at 100 μM for 15 min before incubation for 45 min with a cell-free degranulation supernatant obtained from fMLP (1 μM, 2 min) stimulated PMN. Blots are representative of 4 experiments and densitometric analyses are cumulative and expressed as percentage of the actin level. […] (F) Sensorgrams of the PMN specific binding and dissociation to the anti-gp91phox antibody (7D5) coated to the CM3 sensorchip, analysed with the Biacore X100, as a function of time. […] Data are representative of 3 independent experiments are expressed as resonance unit (RU). (G) Flow cytometry quantification of the Gp91phox expression at the surface of PMN treated or not (Control) with 0.5 unit Elastase at 4° C. […]

Gp91phox [10] = experiment: Biacore SPR binding of intact PMN to anti-gp91phox 7D5 antibody; set-up: species or system human; conditions: PMN pretreated 1 H at 37° C. (0.5 units) and washed
Procedure: as §8

Gp91phox [11] = experiment: Flow cytometry of 7D5 antibody binding to gp91phox at the PMN surface after elastase at 4° C.; assay type: cell-based, human; conditions: PMN treated at 4° C. for 1 H, 0.5 unit
Procedure: as §8

p22phox = p22phox degradation in healthy PMN treated with purified elastase, western-blot; assay type: cell-based, human; conditions: 1 H at 37° C., 0.5 unit
Procedure: as §8

With `CCOCc1nc2c([nH]1)c(N)nc1ccccc12` [CL097] the “Gp91phox mRNA level” value (Gp91phox mRNA) was “increased”, the “ROS production in whole blood (stimulation and potentiation properties)” value ([1]; whole blood from patients) was “also observed” and the fMLP-induced bacterial killing (E coli [2]; control neutrophils, 1 μg/ml 2 min before fMLP 23 min) was “non significant increase”. For the same molecule, the “bacterial killing by agonist alone” value (E coli [2]; neutrophils from controls, 1 μg/ml) was “significant bacterial killing”, the fMLP-induced superoxide production [3] was “potentiated fMLP-induced superoxide production to a level similar of that of neutrophils from healthy donors” and the “expression of Gp91phox (western-blot)” value (Gp91phox [4]) was “restored”. For the same molecule, the “optimal production of superoxide” value [5] was “further increased”, the “bacterial killing by agonist alone” value (E coli [6]; neutrophils from cirrhotic patients, 1 μg/ml) was “significant bacterial killing” and the fMLP-induced bacterial killing (E coli [6]; patients' neutrophils, 1 μg/ml 2 min before fMLP 23 min) was “strongly potentiated”. For the same molecule, the “fMLP-induced ROS production” value ([7]; agonist 15 min, then 1 μM fMLP) was “strongly potentiate” and the “ROS production by agonist by itself” value ([7]; agonist alone, 15 min) was “weak production of ROS”.

With `CCOCc1nc2c(N)nc3ccccc3c2n1CC(C)(C)O` [R848, 4-amino-2-ethoxymethyl-α,α-dimethyl-1H-imidazol[4,5-c]quinoline-1-ethanol] the “improvement of ROS production, potency compared with CL097” value ([1]; whole blood from cirrhotic patients, 0.25-5 μg/ml 15 min, then 1 μM fMLP) was “more potent than CL097”, the “improvement of ROS production, potency compared with CL097” value [8] was “more potent than CL097” and the “ROS production in whole blood of cirrhotic rats” value (cirrhotic BDL rats) was “reversed the deficient ROS production”.

In the case of “elastase: purified elastase, a serine protease produced by neutrophils”, the gp91phox degradation (Gp91phox [9]) is reported as “approximately 50%”, the “PMN binding to 7D5 antibody (SPR)” value (Gp91phox [10]) is reported as “markedly reduced” and the “7D5 antibody binding (FACS scan)” value (Gp91phox [11]) is reported as “strongly inhibited”. The p22phox degradation (p22phox) was “degradation of p22phox was observed”.
